Patent US20250092017A1, “2-PIPERIDYL OR 2-PYRAZOLYL SUBSTITUTED PYRIMIDINE COMPOUND SERVING AS EGFR INHIBITOR” (SUZHOU PUHE BIOPHARMA CO., LTD., priority 2022, published 2025)

Assays:
EGFR (L858R/C797S) = EGFR (L858R/C797S) (Homo sapiens, UniProt P00533, C797S/L858R); assay: MSA (Mobility Shift Assay) kinase activity, EGFR-L858R-C797S; format: biochemical
Procedure: (§1) The MSA (Mobility Shift Assay) method was used to detect the effects of small molecule inhibitors on the kinase activity of EGFR wild type and its mutants (EGFR^wt, EGFR-L858R, EGFR-L858R-T790M-C797S, EGFR-L858R-C797S).
(§2) 10 μL of kinase solution at 2.5 times the final concentration was added to the compound wells and positive control Max wells; 10 μL of 1x kinase buffer was added to the negative control Min wells. The mixture was centrifuged at 1000 rpm for 30 seconds, and the reaction plate was shaken to mix the solution well and then incubated at room temperature for 10 minutes. A mixed solution of ATP and kinase substrate at 5/3 times the final concentration was prepared in 1x kinase buffer. 15 μL of a mixed solution of ATP and substrate at 5/3 times the final concentration was added to initiate the reaction. The 384-well plate was centrifuged at 1000 rpm for 30 seconds, and shaken to mix the solution well and then incubated at room temperature for the corresponding time. 30 μL of stop detection solution was added to stop the kinase reaction, and the mixture was centrifuged at 1000 rpm for 30 seconds, and then to mixed well by shaking. The conversion rate was read using Caliper EZ Reader.
(§3) wherein: Conversion %_sample is the conversion rate reading of the sample; Conversion %_min is the mean of the negative control wells, representing the conversion rate reading of the wells without enzyme activity; Conversion %_max is the mean of the positive control wells, representing the conversion rate reading of the wells without compound inhibition.
(§4) The log (inhibitor) vs. response —Variable slope of the analysis software GraphPad Prism 5 was used to fit the dose-effect curve, where the log value of the concentration was used as the X-axis and the percentage inhibition rate was used as the Y-axis, to obtain the IC50 value of each compound on the enzyme activity.
(§5) The calculation formula is Y=Bottom+(Top-Bottom)/(1+10^((Log IC50−X)*Hill Slope))

EGFR (wild-type) = EGFR (wild-type) (Homo sapiens, UniProt P00533); assay: MSA (Mobility Shift Assay) kinase activity, EGFR wild type; format: biochemical; details: read-out: EGFR wt/ IC50/nM
Procedure: as §1, §2, §3, §4, §5

EGFR (L858R/T790M/C797S) = EGFR (L858R/T790M/C797S) (Homo sapiens, UniProt P00533, C797S/L858R/T790M); assay: MSA (Mobility Shift Assay) kinase activity, EGFR-L858R-T790M-C797S; format: biochemical
Procedure: as §1, §2, §3, §4, §5

EGFR (L858R) = EGFR (L858R) (Homo sapiens, UniProt P00533, L858R); assay: MSA (Mobility Shift Assay) kinase activity, EGFR-L858R; format: biochemical
Procedure: as §1, §2, §3, §4, §5

[1] = tested on: Ba/F3-FL-EGFR-del19-C797S; assay: CellTiter-Glo proliferation, Ba/F3-FL-EGFR-del19-C797S; format: cell-based; details: 72 h, proliferation, 72 hours, CellTiter-Glo; read-out: Ba/F3-FL-EGFR-del19-C797S IC50/nM
Procedure: (§6) Promega CellTiter-Glo reagent was used to detect the effects of small molecule inhibitors on the proliferation of five Ba/F3 cell lines (Ba/F3-FL-EGFR, Ba/F3-FL-EGFR-L858R, Ba/F3-FL-EGFR-L858R-T790M-C797S, Ba/F3-TEL-EGFR-L858R-C797S and Ba/F3-FL-EGFR-del19-C797S).
(§7) The cell lines were cultured in an incubator at 37° C. and 5% CO2. Cells were passaged regularly and cells in the logarithmic phase were used for plating. 95 μL of cell suspension was added to each well of the cell plate, and culture medium without cells (containing 0.1% DMSO) was added to the Min control wells. Substance addition for compound detection cell plate: 5 μL of 20× compound working solution was added to the cell culture plate as shown in the table below. 50 μL of DMSO-cell culture medium mixture was added to the Max control, with the final DMSO concentration of 0.1%. 5 μL of DMSO-cell culture medium mixture was added to the Max control. The final DMSO concentration was 0.1%.
(§8) The compounds to be tested were added as per the table below
(§9) Cell viability was detected by CellTiter-Glo luminescence assay. Data analysis:
(§10) The cell proliferation inhibition rate (Inhibition Rate) data was processed using the following formula: […]
(§11) wherein: RLUDrug represents the relative luminescence unit of the cells with the addition of drug, RLUMin represents the luminescence unit of the culture medium, and RLUMax represents the relative luminescence unit of the cells with the addition of DMSO.
(§12) The inhibition rates corresponding to different concentrations of compounds were calculated in EXCEL, and then the inhibition rate curve was plotted using GraphPad Prism software and related parameters including the maximum and minimum inhibition rates of cells and IC50 values were calculated.

Ba/F3-FL-EGFR-L858R = Ba/F3-FL-EGFR-L858R (Homo sapiens, UniProt P00533, L858R, cells depend on it); assay: CellTiter-Glo proliferation, Ba/F3-FL-EGFR-L858R; format: cell-based; details: 72 hours, read-out: Ba/F3-FL-EGFR-L858R IC50/nM
Procedure: as §6, §7, §8, §9, §10, §11, §12

[2] = target: T1, Ba/F3-TEL-EGFR-L858R-C797S (Homo sapiens, UniProt P00533, C797S/L858R, cells depend on it); assay: CellTiter-Glo proliferation, Ba/F3-TEL-EGFR-L858R-C797S; format: cell-based; details: 72 hours, read-out: Ba/F3-TEL-EGFR-L858R-C797S IC50/nM
T1 construct: fused on or other part: N-terminal TEL (ETV6) oligomerising part fused to the EGFR intracellular/kinase part; P41212 (Transcription factor ETV6)
Procedure: as §6, §7, §8, §9, §10, §11, §12

Ba/F3-FL-EGFR = target: T2, Ba/F3-FL-EGFR (Homo sapiens, UniProt P00533); assay: CellTiter-Glo proliferation, Ba/F3-FL-EGFR; format: cell-based; details: 72 hours, read-out: Ba/F3-FL-EGFR IC50/nM
T2 construct: FL read as full length
Procedure: as §6, §7, §8, §9, §10, §11, §12

[3] = target: Ba/F3-FL-EGFR-L858R-T790M-C797S (Homo sapiens, UniProt P00533, T790M/C797S/L858R, cells depend on it); assay: CellTiter-Glo proliferation, Ba/F3-FL-EGFR-L858R-T790M-C797S; format: cell-based; details: 72 hours, read-out: Ba/F3-FL-EGFR-L858R-T790M-C797S IC50/nM
Procedure: as §6, §7, §8, §9, §10, §11, §12

Chain of Ba/F3-FL-EGFR-L858R-T790M-C797S (P00533 whole entry T790M/C797S/L858R): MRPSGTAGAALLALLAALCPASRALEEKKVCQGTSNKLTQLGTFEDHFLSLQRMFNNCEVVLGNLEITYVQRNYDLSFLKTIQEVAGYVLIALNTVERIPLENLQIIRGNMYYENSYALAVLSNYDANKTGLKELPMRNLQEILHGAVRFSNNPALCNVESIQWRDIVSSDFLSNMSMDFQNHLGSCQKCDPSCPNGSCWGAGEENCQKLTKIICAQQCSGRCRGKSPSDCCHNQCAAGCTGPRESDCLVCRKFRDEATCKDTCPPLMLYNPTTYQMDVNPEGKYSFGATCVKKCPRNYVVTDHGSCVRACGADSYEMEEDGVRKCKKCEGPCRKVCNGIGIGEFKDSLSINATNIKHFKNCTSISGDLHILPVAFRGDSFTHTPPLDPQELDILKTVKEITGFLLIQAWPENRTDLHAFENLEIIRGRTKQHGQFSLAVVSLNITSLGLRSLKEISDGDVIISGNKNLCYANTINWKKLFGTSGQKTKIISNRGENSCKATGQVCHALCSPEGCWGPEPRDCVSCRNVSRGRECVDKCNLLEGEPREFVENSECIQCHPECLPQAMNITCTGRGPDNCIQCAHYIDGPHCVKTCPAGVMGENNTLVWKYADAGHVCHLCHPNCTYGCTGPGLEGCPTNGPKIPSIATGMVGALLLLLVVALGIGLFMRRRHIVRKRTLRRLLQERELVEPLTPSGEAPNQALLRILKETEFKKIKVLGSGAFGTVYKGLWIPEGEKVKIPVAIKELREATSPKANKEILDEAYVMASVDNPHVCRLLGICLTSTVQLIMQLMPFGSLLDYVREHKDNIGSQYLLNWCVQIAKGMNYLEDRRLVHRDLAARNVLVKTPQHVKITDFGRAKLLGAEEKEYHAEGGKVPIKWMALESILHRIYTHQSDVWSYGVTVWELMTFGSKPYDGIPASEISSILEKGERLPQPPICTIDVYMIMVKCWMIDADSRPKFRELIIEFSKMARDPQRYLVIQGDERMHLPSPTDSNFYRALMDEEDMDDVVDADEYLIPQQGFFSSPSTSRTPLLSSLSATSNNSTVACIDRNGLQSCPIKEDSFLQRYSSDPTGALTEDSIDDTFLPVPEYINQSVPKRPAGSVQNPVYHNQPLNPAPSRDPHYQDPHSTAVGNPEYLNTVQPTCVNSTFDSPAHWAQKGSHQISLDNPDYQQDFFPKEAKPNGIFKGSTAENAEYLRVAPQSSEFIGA
T2 sequence (P00533 whole entry, change not shown): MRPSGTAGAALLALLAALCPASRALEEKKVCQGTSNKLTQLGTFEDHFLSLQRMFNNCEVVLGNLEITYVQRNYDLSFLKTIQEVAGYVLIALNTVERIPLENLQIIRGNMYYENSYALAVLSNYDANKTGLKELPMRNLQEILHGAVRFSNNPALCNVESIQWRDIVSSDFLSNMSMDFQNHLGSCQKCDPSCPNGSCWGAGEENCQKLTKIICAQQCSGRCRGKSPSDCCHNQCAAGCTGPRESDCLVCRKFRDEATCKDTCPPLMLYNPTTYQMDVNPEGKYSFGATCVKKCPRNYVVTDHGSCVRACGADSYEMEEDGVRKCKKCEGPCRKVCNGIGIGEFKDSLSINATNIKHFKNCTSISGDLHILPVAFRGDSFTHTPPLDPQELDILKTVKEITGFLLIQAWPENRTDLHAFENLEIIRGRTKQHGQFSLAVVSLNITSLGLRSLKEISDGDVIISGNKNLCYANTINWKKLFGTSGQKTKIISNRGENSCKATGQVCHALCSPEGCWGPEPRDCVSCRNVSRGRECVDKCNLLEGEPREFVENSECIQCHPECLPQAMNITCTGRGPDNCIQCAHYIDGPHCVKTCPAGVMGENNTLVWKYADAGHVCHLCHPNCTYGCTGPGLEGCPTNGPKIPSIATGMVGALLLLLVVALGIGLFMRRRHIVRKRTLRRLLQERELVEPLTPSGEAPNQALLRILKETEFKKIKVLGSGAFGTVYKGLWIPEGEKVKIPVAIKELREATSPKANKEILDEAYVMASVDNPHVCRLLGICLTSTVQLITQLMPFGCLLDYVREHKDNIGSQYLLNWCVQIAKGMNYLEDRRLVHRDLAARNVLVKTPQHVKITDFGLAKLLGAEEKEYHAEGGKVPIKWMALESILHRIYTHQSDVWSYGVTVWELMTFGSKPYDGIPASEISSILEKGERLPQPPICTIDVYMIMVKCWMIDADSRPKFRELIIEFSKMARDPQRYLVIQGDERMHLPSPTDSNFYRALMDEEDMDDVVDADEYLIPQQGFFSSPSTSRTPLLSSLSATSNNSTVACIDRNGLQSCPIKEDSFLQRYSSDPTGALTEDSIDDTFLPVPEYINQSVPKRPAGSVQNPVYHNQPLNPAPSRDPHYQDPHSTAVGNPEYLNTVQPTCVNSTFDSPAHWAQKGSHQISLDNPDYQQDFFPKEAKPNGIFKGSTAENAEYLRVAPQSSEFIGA
Chain of Ba/F3-FL-EGFR-L858R (P00533 whole entry L858R): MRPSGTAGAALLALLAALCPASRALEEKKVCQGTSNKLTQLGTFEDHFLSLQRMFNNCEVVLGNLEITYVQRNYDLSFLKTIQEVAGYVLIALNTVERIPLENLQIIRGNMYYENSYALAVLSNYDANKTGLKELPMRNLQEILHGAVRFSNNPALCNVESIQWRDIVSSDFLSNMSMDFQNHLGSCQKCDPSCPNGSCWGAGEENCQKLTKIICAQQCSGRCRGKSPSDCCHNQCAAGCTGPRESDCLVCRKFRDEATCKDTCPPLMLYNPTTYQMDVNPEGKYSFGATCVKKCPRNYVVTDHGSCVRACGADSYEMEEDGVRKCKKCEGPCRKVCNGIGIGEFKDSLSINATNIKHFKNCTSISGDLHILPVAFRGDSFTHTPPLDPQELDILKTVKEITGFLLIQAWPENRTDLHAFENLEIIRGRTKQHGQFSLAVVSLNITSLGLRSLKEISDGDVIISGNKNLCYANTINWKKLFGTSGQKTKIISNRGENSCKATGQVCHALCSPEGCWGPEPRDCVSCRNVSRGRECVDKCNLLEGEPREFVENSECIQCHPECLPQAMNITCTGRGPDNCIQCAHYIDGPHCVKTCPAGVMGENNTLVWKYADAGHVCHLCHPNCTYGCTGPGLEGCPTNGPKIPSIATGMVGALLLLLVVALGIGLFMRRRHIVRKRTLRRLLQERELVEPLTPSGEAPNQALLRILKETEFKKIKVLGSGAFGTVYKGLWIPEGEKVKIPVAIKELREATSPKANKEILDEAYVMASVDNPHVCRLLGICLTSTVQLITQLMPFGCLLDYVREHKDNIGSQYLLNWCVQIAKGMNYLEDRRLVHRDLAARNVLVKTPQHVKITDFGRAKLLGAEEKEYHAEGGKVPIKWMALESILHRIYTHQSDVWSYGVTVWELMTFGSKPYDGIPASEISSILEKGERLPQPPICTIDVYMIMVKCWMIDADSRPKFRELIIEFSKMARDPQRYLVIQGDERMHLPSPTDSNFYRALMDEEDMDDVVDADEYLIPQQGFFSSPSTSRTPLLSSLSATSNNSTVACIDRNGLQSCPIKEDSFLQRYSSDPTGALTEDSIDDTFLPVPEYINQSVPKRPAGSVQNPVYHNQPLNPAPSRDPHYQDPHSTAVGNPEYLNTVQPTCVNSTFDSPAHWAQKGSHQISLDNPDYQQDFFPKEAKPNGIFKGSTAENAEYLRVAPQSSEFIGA
Chain of EGFR (wild-type) (P00533 25-1210): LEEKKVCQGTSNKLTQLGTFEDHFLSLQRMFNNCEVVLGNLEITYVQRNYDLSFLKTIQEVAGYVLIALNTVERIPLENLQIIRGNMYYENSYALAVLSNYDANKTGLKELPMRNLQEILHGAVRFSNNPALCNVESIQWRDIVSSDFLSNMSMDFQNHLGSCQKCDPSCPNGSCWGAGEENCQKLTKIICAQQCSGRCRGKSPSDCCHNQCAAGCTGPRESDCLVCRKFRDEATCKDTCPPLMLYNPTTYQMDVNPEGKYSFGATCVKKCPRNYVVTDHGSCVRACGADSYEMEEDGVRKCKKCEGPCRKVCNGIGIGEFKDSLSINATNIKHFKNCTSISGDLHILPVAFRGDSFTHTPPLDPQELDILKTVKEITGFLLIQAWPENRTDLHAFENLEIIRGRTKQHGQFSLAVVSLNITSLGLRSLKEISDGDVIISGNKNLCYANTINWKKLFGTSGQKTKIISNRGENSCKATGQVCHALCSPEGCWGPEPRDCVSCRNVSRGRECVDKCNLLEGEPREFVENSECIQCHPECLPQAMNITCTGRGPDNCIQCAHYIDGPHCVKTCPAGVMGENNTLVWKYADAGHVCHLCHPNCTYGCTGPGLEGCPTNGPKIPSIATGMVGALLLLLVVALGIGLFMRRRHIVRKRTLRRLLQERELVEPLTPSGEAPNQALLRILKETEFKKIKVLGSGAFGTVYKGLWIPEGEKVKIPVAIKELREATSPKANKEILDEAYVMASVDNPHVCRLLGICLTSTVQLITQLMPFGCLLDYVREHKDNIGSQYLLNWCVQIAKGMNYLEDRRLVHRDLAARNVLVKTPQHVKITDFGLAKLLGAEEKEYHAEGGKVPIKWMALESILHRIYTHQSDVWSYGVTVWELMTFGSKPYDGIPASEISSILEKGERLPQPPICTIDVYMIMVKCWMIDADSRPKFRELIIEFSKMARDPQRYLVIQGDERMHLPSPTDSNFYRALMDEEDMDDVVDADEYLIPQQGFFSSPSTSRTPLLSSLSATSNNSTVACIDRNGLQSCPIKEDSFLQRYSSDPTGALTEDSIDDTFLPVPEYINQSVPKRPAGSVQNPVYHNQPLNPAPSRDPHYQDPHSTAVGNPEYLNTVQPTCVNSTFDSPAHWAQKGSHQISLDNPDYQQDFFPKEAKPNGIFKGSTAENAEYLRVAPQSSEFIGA

IC50 (EGFR (L858R/C797S))	IC50 (EGFR (wild-type))	IC50 (EGFR (L858R/T790M/C797S))	IC50 (EGFR (L858R))	IC50 [1]	GI50 (Ba/F3-FL-EGFR-L858R)	GI50 [2]	GI50 (Ba/F3-FL-EGFR)	GI50 [3]	SMILES
6.4 nM	> 100 nM	3.5 nM	–	–	–	–	–	–	CC(C)c1ccc(N2CC(CS(C)(=O)=O)C2)c2cnc(Nc3ccnc(-c4cnn(S(=O)(=O)C(F)(F)F)c4)n3)cc12 [Compound H8]
> 100 nM	> 100 nM	4.8 nM	> 100 nM	–	–	–	–	–	CC(C)c1ccc(N2CC3(C2)CN(S(C)(=O)=O)C3)c2cnc(Nc3ccnc(N4CCC(O)C(F)C4)n3)cc12 (stereo not drawn) [Compound P11]
> 100 nM	> 100 nM	3.4 nM	> 100 nM	–	–	–	–	–	CC(C)c1ccc(N2CC(CP(C)(C)=O)C2)c2cnc(Nc3ccnc(N4CCC(O)C(F)C4)n3)cc12 (stereo not drawn) [Compound P9]
> 100 nM	> 100 nM	30.9 nM	> 100 nM	–	–	–	–	–	CC(C)c1ccc(N2C[C@@H](NS(C)(=O)=O)[C@@H]2C)c2cnc(Nc3ccnc(N4CCC(O)C(F)C4)n3)cc12 (stereo partly drawn) [Compound P26]
> 100 nM	> 100 nM	6.7 nM	43 nM	–	–	–	–	–	CC(C)c1ccc(N2CC3(CC(S(C)(=O)=O)C3)C2)c2cnc(Nc3ccnc(N4CCC(O)C(F)C4)n3)cc12 (stereo not drawn) [Compound P2]
89.8 nM	> 100 nM	6.1 nM	45.2 nM	–	–	–	–	–	CC(C)c1ccc(N2CC(NS(C)(=O)=O)C2)c2cnc(Nc3ccnc(N4CCC(O)CC4)c3)nc12 [Compound P6]
24.1 nM	> 100 nM	0.28 nM	–	–	–	–	–	–	CC(C)c1cc(C#N)c(N2CC(CS(C)(=O)=O)C2)c2cnc(Nc3ccnc(N4CCC(O)C(F)C4)n3)cc12 (stereo not drawn) [Compound P16]
43.1 nM	90.9 nM	0.42 nM	20.5 nM	–	–	–	–	–	CNC(=O)CC1CN(c2ccc(C(C)C)c3cc(Nc4ccnc(N5CCC(O)C(F)C5)n4)ncc23)C1 (stereo not drawn) [Compound P20]
> 100 nM	> 100 nM	4.6 nM	43.3 nM	–	–	–	–	–	CC(C)c1ccc(N2CC3(CC(S(C)(=O)=O)C3)C2)c2cnc(Nc3ccnc(N4CCC(O)CC4)n3)cc12 [Compound P4]
27 nM	64 nM	0.34 nM	13 nM	–	–	–	–	–	CC(C)c1ccc(N2CC(NS(=O)(=O)c3cccnc3)C2)c2cnc(Nc3ccnc(N4CCC(O)C(F)C4)n3)cc12 (stereo not drawn) [Compound P28]
> 100 nM	> 100 nM	9.9 nM	–	–	–	–	–	–	CC(C)c1ccc(N2CC(c3cscn3)C2)c2cnc(Nc3ccnc(N4CCC(O)C(F)C4)n3)cc12 (stereo not drawn) [Compound P18]
> 100 nM	> 100 nM	1.9 nM	> 100 nM	–	–	–	–	–	CC(C)c1ccc(N2CC(c3cccnc3)C2)c2cnc(Nc3ccnc(N4CCC(O)C(F)C4)n3)cc12 (stereo not drawn) [Compound P12]
> 100 nM	> 100 nM	7.1 nM	> 100 nM	–	–	–	–	–	CC(C)c1cc(C(F)(F)F)c(N2CC3(CC(CS(C)(=O)=O)C3)C2)c2cnc(Nc3ccnc(N4CCC(O)C(F)C4)n3)cc12 (stereo not drawn) [Compound P5]
> 100 nM	> 100 nM	3.4 nM	> 100 nM	–	–	–	–	–	CC(C)n1c(=O)nc(N2CC(CS(C)(=O)=O)C2)c2cnc(Nc3ccnc(N4CCC(O)C(F)C4)n3)cc21 (stereo not drawn) [Compound P19]
1.9 nM	10.2 nM	0.43 nM	4.6 nM	–	–	–	–	–	CC(C)n1c(=O)cc(N2CC(CS(C)(=O)=O)C2)c2cnc(Nc3ccnc(-c4cnn(S(=O)(=O)C5CC5)c4)n3)cc21 [Compound H5]
> 100 nM	> 100 nM	1.7 nM	98.9 nM	–	–	–	–	–	CNC(=O)CN1CC(c2ccc(C(C)C)c3cc(Nc4ccnc(N5CCC(O)C(F)C5)n4)ncc23)C1 (stereo not drawn) [Compound P15]
10.4 nM	41.2 nM	0.13 nM	–	283 nM	128 nM	63 nM	3440 nM	57 nM	COC1CCN(c2nccc(Nc3cc4c(cn3)c(N3CC(CS(C)(=O)=O)C3)cc(=O)n4C(C)C)n2)CC1F (stereo not drawn) [Compound P24]
11.8 nM	80.7 nM	0.12 nM	9.5 nM	–	–	–	–	–	CC(C)n1c(=O)cc(N2CC(CS(C)(=O)=O)C2)c2cnc(Nc3ccnc(N4CCC(O)C(F)C4)n3)cc21 (stereo not drawn) [Compound P14]
8.2 nM	33.8 nM	0.11 nM	7.8 nM	–	–	–	–	–	CC(C)c1ccc(N2CC(NS(=O)(=O)C3CC3)C2)c2cnc(Nc3ccnc(N4CCC(O)C(F)C4)n3)cc12 (stereo not drawn) [Compound P23]
–	–	–	–	159 nM	33 nM	8.3 nM	1090 nM	14 nM	COC1CCN(c2nccc(Nc3cc4c(C(C)C)ccc(N5CC(N(C)S(C)(=O)=O)C5)c4cn3)n2)CC1F (stereo not drawn) [Compound P36]
–	–	–	–	81 nM	25 nM	5.9 nM	465 nM	4.8 nM	CO[C@H]1CCN(c2nccc(Nc3cc4c(C(C)C)ccc(N5C[C@H](N(C)S(C)(=O)=O)[C@H]5C)c4cn3)n2)C[C@H]1F [Compound P40b]
–	–	–	–	59 nM	91 nM	34 nM	739 nM	235 nM	CC(C)c1ccc(N2CC(CS(C)(=O)=O)C2)c2cnc(Nc3ccnc(-c4cnn(C)c4)n3)cc12 [Compound H29]
–	–	–	–	351 nM	218 nM	115 nM	1500 nM	91 nM	CC(C)c1ccc(N2CC(NS(=O)(=O)c3ccoc3)C2)c2cnc(Nc3ccnc(N4CCC(O)C(F)C4)n3)cc12 (stereo not drawn) [Compound P33]
–	–	–	–	14 nM	17 nM	13 nM	229 nM	14 nM	CCOCCS(=O)(=O)n1cc(-c2nccc(Nc3cc4c(C(C)C)ccc(N5C[C@H](CS(C)(=O)=O)[C@H]5C)c4cn3)n2)cn1 [Compound H22]
–	–	–	–	4.3 nM	2.9 nM	1.8 nM	76 nM	4.4 nM	COCCS(=O)(=O)n1cc(-c2nccc(Nc3cc4c(C(C)C)ccc(N5C[C@H](CS(C)(=O)=O)[C@H]5C)c4cn3)n2)cn1 [Compound H21]
12 nM	> 100 nM	6.3 nM	–	–	–	–	–	–	CC(C)c1ccc(N2CC(CS(C)(=O)=O)C2)c2cnc(Nc3ccnc(-c4cnn(S(=O)(=O)C5CCCCC5)c4)n3)cc12 [Compound H9]

SMILES	IC50 (EGFR (L858R/C797S))	IC50 (EGFR (wild-type))	IC50 (EGFR (L858R/T790M/C797S))	IC50 (EGFR (L858R))	IC50 [1]	GI50 (Ba/F3-FL-EGFR-L858R)	GI50 [2]	GI50 (Ba/F3-FL-EGFR)	GI50 [3]
CC(C)c1ccc(N2CC(NC(=O)N(C)C)C2)c2cnc(Nc3ccnc(N4CCC(O)C(F)C4)n3)cc12 (stereo not drawn) [Compound P10]	41 nM	> 100 nM	0.56 nM	43.2 nM	–	–	–	–	–
